In US10344330B2, “Glatiramer acetate response biomarker mRNA potency assay” (Mylan Inc., priority 2013, dated 2019):
Values joined by “and” are separate entries in the source; they are usually repeats but may differ in a detail not shown here. Identical values can stand only once. Like-named read-outs stand apart in the source and are kept apart here.

Tests used:
[1] = test system: mIL-4 mRNA in primary LN cells; assay: mIL-4 mRNA by real-time PCR in stimulated LN cells of immunized (SJL/J×BALB/C)F1 mice (Example I); format: cell-based, mouse; settings: for mIL-4 mRNA Level: Experiment 1, GA-immunized (SJL/J×BALB/C)F1; for mIL-4 mRNA: reference 18S rRNA
Protocol: For each of the three experiments summarized in Table 1, female (SJL/J×BALB/C) F1 hybrid (Jackson Laboratory) mice were immunized by footpad injection with either 250 μg GMA (Mylan Pharmaceuticals, Inc.) and CFA (Sigma Aldrich), or Mannitol and CFA (as a negative control). The GA solution was diluted to 5 mg/mL with Dulbecco's Phosphate-buffered saline. A dose solution was then prepared by mixing the diluted GA solution (5 mg/mL) and CFA (1:1) until well-emulsified. Each mouse received a total injection volume of 0.1 mL (250 μg GA). Animals were immunized on Day 0. Immunized animals were sacrificed via cervical dislocation on Day 10 following immunization. […] The LN were washed 3 times with −5 mL of RPMI medium, and the LN cells isolated by pressing the LN with a syringe plunger. […] The cell suspension was centrifuged at about 200×g for 10 minutes at about 4° C. and re-suspended in ice cold enriched DCCM-1 medium. The LN cells (2.5×10^6 cells/cm^2) were plated in the wells of a 48-well tissue culture plate and stimulated with GA or controls.
Expression of cytokine mRNA was quantitatively analyzed using a Real-Time PCR system (7500, Applied Biosystems).
(DCCM1 from Beit Haemek Ltd.; Cat. No. 05 010 1A). There was no MBP treatment for the 2-hour groups.
Group 1B animals were female (SJL/J×BALB/C) F1 hybrid (Jackson Laboratory) mice immunized by footpad injection with either 250 μg GA and CFA, or Mannitol and CFA (as a negative control). A dose solution was prepared by mixing a diluted GA solution (5 mg/mL) and CFA (1:1). Each mouse received a total injection volume of […] (250 μg GA). Animals were immunized on Day 0. Immunized animals were sacrificed via cervical dislocation on Day 10 following immunization. Lymph nodes from immunized mice were removed and isolated. LN cells (2.5×10^6 cells/cm^2) were plated in the wells of a 48-well tissue culture plate for stimulation with GA.
(§1) Expression of cytokine mRNA was quantitatively analyzed 4 and 6 hours after using a Real-Time PCR system (7500, Applied Biosystems).

[2] = test system: mIL-10 mRNA in primary LN cells; assay: mIL-10 mRNA by real-time PCR in stimulated LN cells of immunized (SJL/J×BALB/C)F1 mice (Example I); format: cell-based, mouse
Protocol: Animals were immunized on Day 0.
Each mouse received a total injection volume of […] (250 μg GA). Animals were immunized on Day 0. […] Lymph nodes from immunized mice were removed and isolated.
as §1

[3] = test system: IFN-γ secreted by LN cells; assay: IFN-γ secretion by GA-stimulated LN cells, MSD ELISA, 21 and 45 hr (Example II); format: cell-based, mouse
[4] = test system: mouse IL-13 mRNA in primary LN cells; assay: Mouse IL-13 mRNA in LN cells of immunized SJL/J mice stimulated with Copaxone and GMA lots, normalized to Actβ or GAPDH (Example V); format: cell-based; settings: for 1L-13 mRNA Fold Change / IL-13 mRNA Fold Change: 2.5 μg/mL; for 1L-13 mRNA Fold Change: normalized to Actβ; for IL-13 mRNA Fold Change: normalized to GAPDH
Protocol: A real-time polymerase chain reaction method was used to measure the expression of cytokine mRNA in GA-stimulated LN cells from GA-immunized SJL/J mice. Normalization of expression with two different housekeeping genes, GAPDH and β-actin, was tested.
Each group consisted of six female SJL/J mice immunized by injection in all four footpads with a total dose of 250 μg of one lot of GA, or mannitol and no GA. Three Copaxone batches and three GMA batches were used to immunize the mice. CFA was included in both GA and mannitol immunizations. Ten days following immunization, LN cell samples isolated from the immunized mice were each stimulated with a concentration of a Copaxone lot and a GMA lot. A positive control of 2.5 μg/mL ConA treated LN cells and a negative control of 10 μg/mL MBP treated cells were included in each group.
Therefore, the Q-PCR analysis was repeated on the samples, measuring levels of IL-2, IL-4, IL-5, and IL-13, using both GAPDH and β-actin as reference gene.

[5] = test system: IL-2 secreted by LN cells; assay: IL-2 secretion by GA-stimulated LN cells, MSD 9-plex ELISA (Example II); format: cell-based, mouse; settings: for IL-2 secretion response ratio (treated cell medium to control DCCM1 medium): 21 hr
[6] = 2 hour post stimulation, GA 10, ConA 2.5 μg/mL
[7] = 4 hour post stimulation, GA 10, MBP 10, ConA 2.5 μg/mL
[8] = 6 hour post stimulation, GA 10, MBP 10, ConA 2.5 μg/mL
[9] = 24 hour post stimulation, GA 10, MBP 10, ConA 2.5 μg/mL
[10] = Group 1B (GA + CFA), 4 hours post-stimulation, GA 10, MBP 10, ConA 2.5 μg/mL
[11] = Group 1B (GA + CFA), 6 hours post-stimulation, GA 10, MBP 10, ConA 2.5 μg/mL
[12] = Group 2B (Mannitol + CFA), 4 hours post-stimulation, GA 10, MBP 10, ConA 2.5 μg/mL
[13] = Group 2B (Mannitol + CFA), 6 hours post-stimulation, GA 10, MBP 10, ConA 2.5 μg/mL
[14] = LN cells from each of the three mouse strains

Substance: L-glutamic acid polymer with L-alanine, L-lysine and L-tyrosine, acetate (salt) [GA]
- mIL-4 mRNA Level [1, 6]: 10.0 fold change vs control
- mIL-4 mRNA Level [1, 7]: 10.0 fold change vs control
- mIL-4 mRNA Level [1, 8]: 16.5 fold change vs control
- mIL-4 mRNA Level [1, 9]: 14.1 fold change vs control
- mIL-4 mRNA [1, 10]: 8.2 fold change vs control
- mIL-4 mRNA [1, 11]: 9.2 fold change vs control
- mIL-4 mRNA level increase vs DCCM-1-stimulated control ([1]; Group 1B, 4 and 6 hours (summary of Table 9)): at least 8 fold
- mIL-4 mRNA [1, 12]: 2.2 fold change vs control
- mIL-4 mRNA [1, 13]: 1.1 fold change vs control
- mIL-10 mRNA [2]: 1.7 fold change vs control and 1.4 fold change vs control and 1.2 fold change vs control and 0.9 fold change vs control
- IFN-γ secretion, dose response to GA (in words) [3, 14]: dose-dependent manner
- IL-13 cross-potency ([4]; Copaxone: C/A, GMA: B/D, 5 μg/mL): 74.8%
- IL-2 secretion, dose response to GA (in words) [5, 14]: dose-dependent manner

Substance: Concanavalin A [ConA, reference compound]
- mIL-4 mRNA Level [1, 6]: 35.7 fold change vs control
- mIL-4 mRNA Level [1, 7]: 47.6 fold change vs control
- mIL-4 mRNA Level [1, 8]: 52.2 fold change vs control
- mIL-4 mRNA Level [1, 9]: 6.1 fold change vs control
- mIL-4 mRNA [1, 10]: 27.1 fold change vs control
- mIL-4 mRNA [1, 11]: 12.8 fold change vs control
- mIL-4 mRNA [1, 12]: 37.3 fold change vs control
- mIL-4 mRNA [1, 13]: 56.2 fold change vs control
- mIL-10 mRNA ([2]; Group 1B (GA + CFA), 4 hours post-stimulation, GA 10, MBP 10, ConA 2.5 μg/mL, reference GAPDH): 2.3 fold change vs control
- mIL-10 mRNA ([2]; Group 1B (GA + CFA), 6 hours post-stimulation, GA 10, MBP 10, ConA 2.5 μg/mL, reference GAPDH): 1.2 fold change vs control
- mIL-10 mRNA ([2]; Group 2B (Mannitol + CFA), 4 hours post-stimulation, GA 10, MBP 10, ConA 2.5 μg/mL, reference GAPDH): 1.6 fold change vs control
- mIL-10 mRNA ([2]; Group 2B (Mannitol + CFA), 6 hours post-stimulation, GA 10, MBP 10, ConA 2.5 μg/mL, reference GAPDH): 3.1 fold change vs control
- IFN-γ secretion response ratio (treated cell medium to control DCCM1 medium) ([3]; BALB/cByJ, immunized GA Intraplantar, 21 hr): 9.70
- IFN-γ secretion response ratio (treated cell medium to control DCCM1 medium) ([3]; BALB/cByJ, immunized GA Intraplantar, 45 hr): 11.40
- IFN-γ secretion response ratio (treated cell medium to control DCCM1 medium) ([3]; BALB/cByJ, immunized GA Lower Limb, 21 hr): 6.24
- IFN-γ secretion response ratio (treated cell medium to control DCCM1 medium) ([3]; BALB/cByJ, immunized GA Lower Limb, 45 hr): 7.33
- IFN-γ secretion response ratio (treated cell medium to control DCCM1 medium) ([3]; BALB/cByJ, immunized Mannitol Intraplantar, 21 hr): 4.40
- IFN-γ secretion response ratio (treated cell medium to control DCCM1 medium) ([3]; BALB/cByJ, immunized Mannitol Intraplantar, 45 hr): 3.48
- IFN-γ secretion response ratio (treated cell medium to control DCCM1 medium) ([3]; C57BL10J, immunized GA Intraplantar, 21 hr): 11.55
- IFN-γ secretion response ratio (treated cell medium to control DCCM1 medium) ([3]; C57BL10J, immunized GA Intraplantar, 45 hr): 53.10
- IFN-γ secretion response ratio (treated cell medium to control DCCM1 medium) ([3]; C57BL10J, immunized GA Lower Limb, 21 hr): 5.07
- IFN-γ secretion response ratio (treated cell medium to control DCCM1 medium) ([3]; C57BL10J, immunized GA Lower Limb, 45 hr): 5.15
- IFN-γ secretion response ratio (treated cell medium to control DCCM1 medium) ([3]; C57BL10J, immunized Mannitol Intraplantar, 21 hr): 4.05
- IFN-γ secretion response ratio (treated cell medium to control DCCM1 medium) ([3]; C57BL10J, immunized Mannitol Intraplantar, 45 hr): 5.90
- IFN-γ secretion response ratio (treated cell medium to control DCCM1 medium) ([3]; CD-1, immunized GA Intraplantar, 21 hr): 10.14
- IFN-γ secretion response ratio (treated cell medium to control DCCM1 medium) ([3]; CD-1, immunized GA Intraplantar, 45 hr): 5.47
- IFN-γ secretion response ratio (treated cell medium to control DCCM1 medium) ([3]; CD-1, immunized GA Lower Limb, 21 hr): 1.90
- IFN-γ secretion response ratio (treated cell medium to control DCCM1 medium) ([3]; CD-1, immunized GA Lower Limb, 45 hr): 1.89
- IFN-γ secretion response ratio (treated cell medium to control DCCM1 medium) ([3]; CD-1, immunized Mannitol Intraplantar, 21 hr): 9.35
- IFN-γ secretion response ratio (treated cell medium to control DCCM1 medium) ([3]; CD-1, immunized Mannitol Intraplantar, 45 hr): 9.68
- 1L-13 mRNA Fold Change ([4]; Group ID 3): 15.6 fold
- IL-13 mRNA Fold Change ([4]; Group ID 3): 27.4 fold
- 1L-13 mRNA Fold Change ([4]; Group ID 4): 20.4 fold
- IL-13 mRNA Fold Change ([4]; Group ID 4): 34.8 fold
- IL-2 secretion response ratio (treated cell medium to control DCCM1 medium) ([5]; BALB/cByJ, immunized GA Lower Limb): 283.65
- IL-2 secretion response ratio (treated cell medium to control DCCM1 medium) ([5]; C57BL10J, immunized GA Intraplantar): 40.09
- IL-2 secretion response ratio (treated cell medium to control DCCM1 medium) ([5]; C57BL10J, immunized GA Lower Limb): 31.11
- IL-2 secretion response ratio (treated cell medium to control DCCM1 medium) ([5]; CD-1, immunized GA Lower Limb): 19.64
